Measurements: ChEMBL document CHEMBL1795338, “Identification of pentacyclic triterpenes derivatives as potent inhibitors against glycogen phosphorylase based on 3D-QSAR studies” (Eur J Med Chem, 2011)

What follows are compounds tested against T1, Glycogen phosphorylase, muscle form (Oryctolagus cuniculus, UniProt P00489) (assay: Inhibition of rabbit muscle glycogen phosphorylase A assessed as release of phosphate from glucose-1-phosphate after 25 mins by microplate reader based method).
T1 sequence (P00489 whole entry): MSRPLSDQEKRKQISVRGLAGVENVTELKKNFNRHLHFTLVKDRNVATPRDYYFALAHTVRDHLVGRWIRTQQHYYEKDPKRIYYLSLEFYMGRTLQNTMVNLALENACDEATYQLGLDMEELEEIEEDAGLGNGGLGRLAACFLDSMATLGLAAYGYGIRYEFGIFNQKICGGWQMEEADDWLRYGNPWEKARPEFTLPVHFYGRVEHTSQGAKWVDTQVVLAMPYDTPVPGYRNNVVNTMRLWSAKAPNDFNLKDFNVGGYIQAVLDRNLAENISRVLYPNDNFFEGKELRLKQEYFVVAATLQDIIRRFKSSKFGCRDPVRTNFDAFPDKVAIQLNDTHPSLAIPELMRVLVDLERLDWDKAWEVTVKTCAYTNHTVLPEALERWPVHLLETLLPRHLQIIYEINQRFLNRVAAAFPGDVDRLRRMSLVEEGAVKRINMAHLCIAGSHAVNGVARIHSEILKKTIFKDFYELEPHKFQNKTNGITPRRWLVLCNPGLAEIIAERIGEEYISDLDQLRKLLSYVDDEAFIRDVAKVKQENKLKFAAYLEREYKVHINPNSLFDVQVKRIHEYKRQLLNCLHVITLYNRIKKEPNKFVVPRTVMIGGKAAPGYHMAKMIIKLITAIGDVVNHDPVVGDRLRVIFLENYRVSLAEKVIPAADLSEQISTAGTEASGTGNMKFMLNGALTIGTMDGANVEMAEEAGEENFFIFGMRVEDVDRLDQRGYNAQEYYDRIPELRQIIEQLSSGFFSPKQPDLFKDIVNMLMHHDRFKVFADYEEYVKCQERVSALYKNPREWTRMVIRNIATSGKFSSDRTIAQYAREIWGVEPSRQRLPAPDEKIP

First: C[C@H]1[C@H](C)CC[C@]2(C(=O)OCc3ccccc3)CC[C@]3(C)C(=CC[C@@H]4[C@@]5(C)C=C(O)C(=O)C(C)(C)[C@@H]5CC[C@]43C)[C@H]12
Second: C[C@H]1[C@H](C)CC[C@]2(C(=O)OCc3ccccc3)CC[C@]3(C)C(=CC[C@@H]4[C@@]5(C)C/C(=N\O)C(=O)C(C)(C)[C@@H]5CC[C@]43C)[C@H]12
The IC50 of the first is 11-fold lower: 7.31 µM for the first, 82.9 µM for the second. The first is the more potent here.

C[C@H]1[C@H](C)CC[C@]2(C(=O)OCc3ccccc3)CC[C@]3(C)C(=CC[C@@H]4[C@@]5(C)C[C@@H](O)[C@H](O)C(C)(C)[C@@H]5CC[C@]43C)[C@H]12 and COS(=O)(=O)[C@@H]1C[C@]2(C)[C@H]3CC=C4[C@@H]5[C@@H](C)[C@H](C)CC[C@]5(C(=O)OCc5ccccc5)CC[C@@]4(C)[C@]3(C)CC[C@H]2C(C)(C)[C@H]1O are within 1.5-fold of each other in IC50: 41.2 µM for the first, 43.4 µM for the second.

Going from CC1(C)CC[C@]2(C(=O)O)CC[C@]3(C)C(=CC[C@@H]4[C@@]5(C)Cc6cnn(-c7ccc(Cl)cc7)c6C(C)(C)[C@@H]5CC[C@]43C)[C@@H]2C1 to Cc1ccc(-n2ncc3c2C(C)(C)[C@@H]2CC[C@]4(C)[C@H](CC=C5[C@@H]6CC(C)(C)CC[C@]6(C(=O)O)CC[C@]54C)[C@@]2(C)C3)cc1, the IC50 falls from 242 µM to 18.3 µM (13-fold). The second is the more potent here.

Cc1ccc(NCCCCCCOC(=O)[C@]23CCC(C)(C)C[C@H]2C2=CC[C@@H]4[C@@]5(C)CC[C@H](O)C(C)(C)[C@@H]5CC[C@@]4(C)[C@]2(C)CC3)cc1 and CC(=O)OCc1cn(CCCCCCn2cc(COC(=O)[C@]34CCC(C)(C)C[C@H]3C3=CC[C@@H]5[C@@]6(C)CC[C@H](O)C(C)(C)[C@@H]6CC[C@@]5(C)[C@]3(C)CC4)nn2)nn1 are within 1.5-fold of each other in IC50: 28.1 µM for the first, 20.7 µM for the second.

Compared with CC1(C)CC[C@]2(COC(=O)CCC(=O)O)CC[C@]3(C)C(=CC[C@@H]4[C@@]5(C)Cc6c[nH]nc6C(C)(C)[C@@H]5CC[C@]43C)[C@@H]2C1, CC1(C)CC[C@]2(C(=O)O)CC[C@]3(C)C(=CC[C@@H]4[C@@]5(C)Cc6cn[nH]c6C(C)(C)[C@@H]5CC[C@]43C)[C@@H]2C1 is 3.2-fold lower in IC50: 24.7 µM for the first, 7.8 µM for the second.

CCCC(=O)O[C@@H]1C[C@]2(C)[C@H]3CC=C4[C@@H]5[C@@H](C)[C@H](C)CC[C@]5(C(=O)O)CC[C@@]4(C)[C@]3(C)CC[C@H]2C(C)(C)[C@H]1OC(=O)CCC and CCCC(=O)O[C@@H]1C[C@]2(C)[C@H]3CC=C4[C@@H]5[C@@H](C)[C@H](C)CC[C@]5(C(=O)O)CC[C@@]4(C)[C@]3(C)CC[C@H]2C(C)(C)[C@H]1O are within 1.5-fold of each other in IC50: 78.7 µM for the first, 77.9 µM for the second.

Going from CC1(C)CC[C@]2(C(=O)O)CC[C@]3(C)C(=CC[C@@H]4[C@@]5(C)CC[C@H](OC(=O)Cn6cc(COC(=O)Cc7ccccc7)nn6)C(C)(C)[C@@H]5CC[C@]43C)[C@@H]2C1 to CCCCCCCCCCCC(=O)OCc1cn(CC(=O)O[C@H]2CC[C@]3(C)[C@H]4CC=C5[C@@H]6CC(C)(C)CC[C@]6(C(=O)OCc6ccccc6)CC[C@@]5(C)[C@]4(C)CC[C@H]3C2(C)C)nn1, the IC50 falls from 30.9 µM to 7.76 µM (4-fold). The second is the more potent here.

Going from CC1(C)CC[C@]2(C(=O)O)CC[C@]3(C)C(=CC[C@@H]4[C@@]5(C)C/C(=N\O)[C@H](O)C(C)(C)[C@@H]5CC[C@]43C)[C@@H]2C1 to CC1(C)CC[C@]2(C(=O)O)CC[C@]3(C)C(=CC[C@@H]4[C@@]5(C)CC6C=NOC6C(C)(C)[C@@H]5CC[C@]43C)[C@@H]2C1 (some centres undefined), the IC50 falls from 28.2 µM to 12.7 µM (2.2-fold). The second is the more potent here.

Compared with CC1(C)CC[C@]2(C(=O)OCc3ccccc3)CC[C@]3(C)C(=CC[C@@H]4[C@@]5(C)CC[C@H](OC(=O)[n+]6ccccc6)C(C)(C)[C@@H]5CC[C@]43C)[C@@H]2C1, CC1(C)CC[C@]2(C(=O)OCc3ccccc3)CC[C@]3(C)C(=CC[C@@H]4[C@@]5(C)CC[C@H](OC(=O)CCl)C(C)(C)[C@@H]5CC[C@]43C)[C@@H]2C1 is 2.3-fold higher in IC50: 5.39 µM for the first, 12.6 µM for the second.

Compared with CC1(C)CC[C@]2(C(=O)O)CC[C@]3(C)C(=CC[C@@H]4[C@@]5(C)Cc6nonc6C(C)(C)[C@@H]5CC[C@]43C)[C@@H]2C1, CC1(C)CC[C@]2(C(=O)O)CC[C@]3(C)C(=CC[C@@H]4[C@@]5(C)Cc6cnn(-c7cc(F)cc(F)c7)c6C(C)(C)[C@@H]5CC[C@]43C)[C@@H]2C1 is 4.2-fold higher in IC50: 11.2 µM for the first, 46.9 µM for the second.

Compared with CCC(=O)O[C@@H]1C[C@]2(C)[C@H]3CC=C4[C@@H]5CC(C)(C)CC[C@]5(C(=O)O)CC[C@@]4(C)[C@]3(C)CC[C@H]2C(C)(C)[C@H]1OC(=O)CC, CCCC(=O)O[C@@H]1C[C@]2(C)[C@H]3CC=C4[C@@H]5CC(C)(C)CC[C@]5(C(=O)O)CC[C@@]4(C)[C@]3(C)CC[C@H]2C(C)(C)[C@H]1OC(=O)CCC is 2.4-fold higher in IC50: 10.5 µM for the first, 25.2 µM for the second. The first is the more potent here.

First: CC1(C)CC[C@]2(C(=O)OCc3ccccc3)CC[C@]3(C)C(=CC[C@@H]4[C@@]5(C)C[C@H](O)[C@@H](O)C(C)(C)[C@@H]5CC[C@]43C)[C@@H]2C1
Second: CC1(C)CC[C@]2(C(=O)OCc3ccccc3)CC[C@]3(C)C(=CC[C@@H]4[C@@]5(C)Cc6cn(Cc7ccc(Cl)cc7Cl)nc6C(C)(C)[C@@H]5CC[C@]43C)[C@@H]2C1
The IC50 of the first is 27-fold lower: 6.59 µM for the first, 179 µM for the second.

Compared with CC1(C)CC[C@]2(C(=O)OC3CC3)CC[C@]3(C)C(=CC[C@@H]4[C@@]5(C)C[C@H](O)CC(C)(C)[C@@H]5CC[C@]43C)[C@@H]2C1, CC(=O)NCCNCCNC(=O)[C@]12CCC(C)(C)C[C@H]1C1=CC[C@@H]3[C@@]4(C)CC[C@H](OC(C)=O)C(C)(C)[C@@H]4CC[C@@]3(C)[C@]1(C)CC2 is 7.1-fold lower in IC50: 23.1 µM for the first, 3.25 µM for the second.

First: CC(=O)OCCCCCCOC(=O)[C@H](O)CC(=O)OCCCCCCOC(=O)[C@]12CCC(C)(C)C[C@H]1C1=CC[C@@H]3[C@@]4(C)CC[C@H](O)C(C)(C)[C@@H]4CC[C@@]3(C)[C@]1(C)CC2
Second: CC(=O)O[C@@H]1C[C@]2(C)[C@H]3CC=C4[C@@H]5[C@@H](C)[C@H](C)CC[C@]5(C(=O)O)CC[C@@]4(C)[C@]3(C)CC[C@H]2C(C)(C)[C@H]1O
The IC50 of the first is 3.1-fold lower: 12.3 µM for the first, 37.7 µM for the second. The first is the more potent here.

CC(C)c1ccc(-n2ncc3c2C(C)(C)[C@@H]2CC[C@]4(C)[C@H](CC=C5[C@@H]6CC(C)(C)CC[C@]6(C(=O)O)CC[C@]54C)[C@@]2(C)C3)cc1 gave an IC50 of 69.6 µM.
